Test results taken from PubChem BioAssay AID2060504 (Molecular Pharmacology Branch, DTP, NCI, 2025).

System: 636577-100-R-J1-PDC complex spheroid viability
Assay: Anticancer human tumor 636577-100-R-J1-PDC patient-derived endometrial adenocarcinoma cell line growth inhibition [GQUAD]
Details: for IC50: curve of first compound; for viability, T/C: stronger effect = lower value
Source text: DNA G-quadruplex Stabilizer Agents in Combinations in Complex Spheroids
A high-throughput screen of multi-cell type tumor spheroids was designed to identify active combinations of DNA G-quadruplex stabilizer agents and targeted small molecules. Complex spheroids include a stromal component modeled by human endothelial cells (HUVEC) and fibroblasts modeled by human mesenchymal stem cells (MSCs). The concentration ranges selected for each drug and investigational agent were based upon clinically achievable concentrations if the clinical Cmax of the agent was known.
Compounds. The drugs and investigational agents: pidnarulex (CX-5461; NSC782164), APTO-253 (NSC789042), BRACO-19 (NSC847499), peposertib (NSC802822), ceralasertib (NSC780249), elimusertib (NSC800525), camonsertib (NSC841442), AZD-1390 (NSC803789), olaparib (NSC753686), talazoparib (NSC767125), ART-558 (NSC835418), sotorasib (NSC818433), MRTX-1133 (NSC836407), SN-38 (NSC673596), topotecan (NSC609699), etoposide (NSC141540), doxorubicin (NSC123127), gemcitabine (NSC613327), 5-fluorouracil (NSC19893), paclitaxel (NSC125973), vemurafenib (NSC761431), panobinostat (NSC761190), R-306465 (JNJ-16241199; NSC773264), adavosertib (NSC754352), TP-3654 (NSC805149), carboplatin (NSC241240), KSQ-4279 (NSC840948), and staurosporine (NSC755774) were obtained from the National Cancer Institute (NCI) Developmental Therapeutics Program Chemical Repository (34). The FDA-approved anticancer drug set is available from the NCI Developmental Therapeutics Program. […] The stock solutions were prepared in dimethyl sulfoxide (DMSO, Sigma-Aldrich, St. Louis, MO, cat. D2650) at 800-fold the tested concentration and stored at -70 degrees C prior to their use. All drugs and investigational agents were tested over a range starting from a high concentration at or near the clinical Cmax and decreasing in half-log increments. If the clinical Cmax for an agent had not been determined, the highest concentration tested was 10 microM.
2.3 Cell Culture. All cells were maintained in an incubator at 37 degrees C and 5% CO2 with 95% humidity. The PDC lines were cultured according to standard operating procedures established by the NCI PDMR. All PDCs were thawed and cultured in Matrigel-coated flasks prepared with a working solution of 1X Ham's F-12 nutrient mix, without supplementation (Invitrogen, cat. 11765054), 100 U/mL penicillin-streptomycin (Invitrogen, cat. 15140122), and 2.5% Matrigel (Corning Inc., cat. 354248) for the first three passages. The 857933-349-R-J2-PDC line was cultured in 6C/Colon 1B media, which includes advanced DMEM/F-12 (Thermo Fisher Scientific, cat. 12634028), 10 mM HEPES (Thermo Fisher Scientific, cat. 15630080), 1X GlutaMAX supplement (Thermo Fisher Scientific, cat. 35050061), 0.1 mg/mL primocin (InvivoGen, cat. ant-pm-2), 10% defined fetal bovine serum, heat inactivated (HyClone Laboratories Inc., cat. SH30070.03HI), 50% L-WRN conditioned media (ATCC, cat. CRL-3276), 1.25 mM N-Acetyl-L-cysteine (Sigma-Aldrich, cat. A9165), 10 mM nicotinamide (Sigma-Aldrich, cat. N0636), 1X B-27 supplement (Thermo Fisher Scientific, cat. 17504044), 1X N-2 supplement (Thermo Fisher Scientific, cat. 17502048), 10 microM Y-27632 dihydrochloride (Tocris Bioscience, cat. 1254), and 50 ng/mL human EGF recombinant protein (Thermo Fisher Scientific, cat. PHG0311). The 485176-168-R4-J1-PDC line was cultured in Panc media, which includes all 6C/Colon 1B media components plus 100 ng/mL human FGF-10 (Thermo Fisher Scientific, cat. 100-26), 500 nM SB-431542 (Selleckchem, cat. S1067), and gastrin (Tocris, cat. 3006).
[…]
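Further: viability read after seven days of drug exposure.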
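Wherever viability, T/C is given: luminescence signal used as a proxy for viable cells; 100% = DMSO vehicle control wells.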

## O=C(NO)c1cnc(N2CCN(S(=O)(=O)c3ccc4ccccc4c3)CC2)nc1 + Cc1[nH]c2ccc(F)cc2c1-c1nc2c3cccnc3c3ncccc3c2[nH]1
Second compound 0.0316 µM
  IC50: 51.2 nM
Second compound 0.1 µM
  IC50: 57.7 nM
Second compound 0.316 µM
  IC50: 47.6 nM
Second compound 1 µM
  IC50: 46.3 nM
Second compound 3.16 µM
  IC50: < 31.6 nM
Second compound 10 µM
  IC50: < 31.6 nM
Second compound 0.0316 µM, first compound 0.0316 µM
  viability, T/C: 69.7%
Second compound 0.0316 µM, first compound 0.1 µM
  viability, T/C: 21.1%
Second compound 0.0316 µM, first compound 0.316 µM
  viability, T/C: 11.5%
Second compound 0.0316 µM, first compound 1 µM
  viability, T/C: 7.28%
Second compound 0.0316 µM, first compound 3.16 µM
  viability, T/C: 0.23%
Second compound 0.0316 µM, first compound 10 µM
  viability, T/C: 0.1%
Second compound 0.1 µM, first compound 0.0316 µM
  viability, T/C: 68.2%
Second compound 0.1 µM, first compound 0.1 µM
  viability, T/C: 33.2%
Second compound 0.1 µM, first compound 0.316 µM
  viability, T/C: 15.2%
Second compound 0.1 µM, first compound 1 µM
  viability, T/C: 5.55%
Second compound 0.1 µM, first compound 3.16 µM
  viability, T/C: 0.5%
Second compound 0.1 µM, first compound 10 µM
  viability, T/C: 0.09%
Second compound 0.316 µM, first compound 0.0316 µM
  viability, T/C: 60.2%
Second compound 0.316 µM, first compound 0.1 µM
  viability, T/C: 31.4%
Second compound 0.316 µM, first compound 0.316 µM
  viability, T/C: 17.2%
Second compound 0.316 µM, first compound 1 µM
  viability, T/C: 7.41%
Second compound 0.316 µM, first compound 3.16 µM
  viability, T/C: 1%
Second compound 0.316 µM, first compound 10 µM
  viability, T/C: 0.08%
Second compound 1 µM, first compound 0.0316 µM
  viability, T/C: 60.2%
Second compound 1 µM, first compound 0.1 µM
  viability, T/C: 29%
Second compound 1 µM, first compound 0.316 µM
  viability, T/C: 16.6%
Second compound 1 µM, first compound 1 µM
  viability, T/C: 6.03%
Second compound 1 µM, first compound 3.16 µM
  viability, T/C: 1.47%
Second compound 1 µM, first compound 10 µM
  viability, T/C: 0.08%
Second compound 3.16 µM, first compound 0.0316 µM
  viability, T/C: 25.8%
Second compound 3.16 µM, first compound 0.1 µM
  viability, T/C: 19.7%
Second compound 3.16 µM, first compound 0.316 µM
  viability, T/C: 17.1%
Second compound 3.16 µM, first compound 1 µM
  viability, T/C: 7.07%
Second compound 3.16 µM, first compound 3.16 µM
  viability, T/C: 2.05%
Second compound 3.16 µM, first compound 10 µM
  viability, T/C: 0.09%
Second compound 10 µM, first compound 0.0316 µM
  viability, T/C: 29.5%
Second compound 10 µM, first compound 0.1 µM
  viability, T/C: 22.4%
Second compound 10 µM, first compound 0.316 µM
  viability, T/C: 14.3%
Second compound 10 µM, first compound 1 µM
  viability, T/C: 6.09%
Second compound 10 µM, first compound 3.16 µM
  viability, T/C: 2.61%
Second compound 10 µM, first compound 10 µM
  viability, T/C: 0.11%
